Results published in patent publication US7390796B2, “Fatty acid modified forms of glucocorticoids” (Sepracor Inc., priority 2002, dated 2008).

Experiments:
[1] = system: WI-38 cells; assay: IC50 for inhibition of IL-1β-stimulated PGE2 production in WI-38 cells; type: cell-based, human; conditions: PGE2 in supernatant, IL-1β stimulation, 24 hours, EIA
Experimental: Nominal 5 mM solutions of the budesonide fatty acid esters were made in DMSO by adding the following amounts of compound and DMSO: docosahexaenoic acid ester of budesonide 7.5 mg in 2 ml DMSO, docosapentaenoic acid ester of budesonide 32.9 mg in 9.1 ml DMSO and eicosapentaenoic acid ester of budesonide 20.3 mg in 5.8 ml DMSO. A 5 mM solution of budesonide was made by dissolving 4.5 mg of budesonide (Sigma Chemical Company product number B 7777) in 2.1 ml DMSO.
(§1) The WI-38 human lung fibroblast line was obtained from the ATCC (catalog number 75-CCL) and maintained in Basel Medium Eagle with Earle's salts (GibcoBRL product number 21010-046) supplemented with 2 mM glutamine and 10% fetal calf serum at 37° C. in a 7% CO2 (balance air), humidified atmosphere. One week before experiments were done, the WI-38 cells were seeded into 48-well tissue culture dishes and maintained in media containing 10% fetal calf serum. The cells were used when confluent. The day before the experiment the cells were fed fresh media containing 10% fetal calf serum (0.25 ml per well). One the day of the experiment the media was removed from the cells and 0.25 ml of media containing 5% fetal calf serum added.
To determine the IC50 values for the compounds, 1 to 1000 dilutions were made of the 5 mM stock solutions in DMSO to give 5 uM solutions. These solutions were serially diluted 1:2 in DMSO to give a series of 12 dilutions ranging from 5 uM to 2.4 nM. 0.0025 ml aliquots of the 12 dilutions were added to wells of the WI-38 cells to give final compound concentrations ranging from 50 nM to 0.024 nM. The cells were stimulated by addition of 0.001 ml of 0.025 ug/ml recombinant human Interleukin-1β (IL-1β-Calbiochem catalog number 407615) in 0.1% bovine serum albumin in phosphate buffered saline. The cells were incubated for 24 hours and the supernatants harvested. The level of PGE2 in the supernatants was assayed using a commercial Enzyme Immuno Assay (EIA) kit (Cayman Chemical catalog number 514010) after diluting 1:10 in EIA buffer according to the manufacturer's directions. The data from these experiments was fit to a 4 parameter logistic function using the IC50 routine in the Grafit 4 program (Erithecus software).

[2] = system: WI-38 cells; assay: Wash-out (duration of action) experiment, PGE2 production in IL-1β-stimulated WI-38 cells; type: cell-based, human; conditions: 2 hours at 50 times the IC50, washed 5 times, IL-1β stimulation, 24 hours
Experimental: as §1
(§2) To test for duration of action, a wash-out experiment was performed as follows. Confluent cells in 48-well tissue culture dishes were treated with concentrations of the above compounds that were 50 times the IC50 values as determined above for 2 hours. The media was removed and the wells washed 5 times with 0.25 ml of media containing 5% fetal calf serum. 0.25 ml of media containing 5% fetal calf serum was then added. The WI-38 cells were stimulated by addition of 0.001 ml of 0.025 ug/ml recombinant human Interleukin-1β (Calbiochem catalog number 407615) in 0.1% bovine serum albumin in phosphate buffered saline. The RAW 264.7 cells were stimulated by addition of 0.001 ml of 0.5 ug/ml E. coli 0127:B8 lipopolysaccharide (LPS-Sigma catalog number L-4516) in 0.1% bovine serum albumin in phosphate buffered saline. The cells were incubated for 24 hours and the supernatants harvested. The level of PGE2 in the supernatants was assayed using a commercial Enzyme Immuno Assay (EIA) kit (Cayman Chemical catalog number 514010) after diluting 1:10 in EIA buffer according to the manufacturer's directions. Eight wells were used for each concentration and the results from these eight wells were averaged.

[3] = system: RAW 264.7 cells; assay: Wash-out (duration of action) experiment, PGE2 production in LPS-stimulated RAW 264.7 cells; type: cell-based, rat; conditions: 2 hours at 50 times the IC50, washed 5 times, E. coli LPS stimulation, 24 hours
Experimental: The […] cell line RAW 264.7 was obtained from the ATCC (catalog number 71-TIB) and maintained in Dulbecco's Modified Eagle Medium (GibcoBRL product number 11960-044) supplemented with 2 mM glutamine, 1 mM sodium pyruvate and 10% fetal calf serum at 37° C. in a 10% CO2 (balance air), humidified atmosphere. One week before experiments were done, the WI-38 cells were seeded into 48-well tissue culture dishes and maintained in media containing 10% fetal calf serum. The cells were used when confluent. The day before the experiment the cells were fed fresh media containing 10% fetal calf serum (0.25 ml per well). One the day of the experiment the media was removed from the cells and 0.25 ml of media containing 5% fetal calf serum added.
as §2

[4] = system: paw edema; assay: Rat paw edema model; type: in vivo
Experimental: Putative anti-inflammatory agents may also be tested in vivo in a rat paw edema model [Hirschelmann, R. and Bekemeier, H., Int J Tissue React 6, 471-475 (1984)], which persons of skill in the art accept as predictive of efficacy in treating asthma and rhinitis in humans. The phytanic acid ester of budesonide was tested in this model.

## CCCC1O[C@@H]2C[C@H]3[C@@H]4CCC5=CC(=O)C=C[C@]5(C)[C@H]4[C@@H](O)C[C@]3(C)[C@]2(C(=O)CO)O1 (stereo partly shown) [Budesonide, budesonide, reference compound]
[1]; Homo sapiens, WI-38
  IC50: 0.2 nM
[2]
  PGE2 production: 2688 pg/mL
[3]
  PGE2 production: 1339 pg/mL
[4]; dose 0.001 μg/paw, 1.5 hours
  percent reduction in paw volume: 0%
[4]; dose 0.001 μg/paw, 3 hours
  percent reduction in paw volume: 20%
[4]; dose 0.001 μg/paw, 4.5 hours
  percent reduction in paw volume: 15%
[4]; dose 0.001 μg/paw, 24 hours
  percent reduction in paw volume: 4%
[4]; dose 0.001 μg/paw, 48 hours
  percent reduction in paw volume: 3%
[4]; dose 0.001 μg/paw, 72 hours
  percent reduction in paw volume: 0%
[4]; dose 0.01 μg/paw, 1.5 hours
  percent reduction in paw volume: 0%
[4]; dose 0.01 μg/paw, 3 hours
  percent reduction in paw volume: 18%
[4]; dose 0.01 μg/paw, 4.5 hours
  percent reduction in paw volume: 0%
[4]; dose 0.01 μg/paw, 24 hours
  percent reduction in paw volume: 11%
[4]; dose 0.01 μg/paw, 48 hours
  percent reduction in paw volume: 0%
[4]; dose 0.01 μg/paw, 72 hours
  percent reduction in paw volume: 3%
[4]; dose 0.1 μg/paw, 1.5 hours
  percent reduction in paw volume: 14%
[4]; dose 0.1 μg/paw, 3 hours
  percent reduction in paw volume: 5%
[4]; dose 0.1 μg/paw, 4.5 hours
  percent reduction in paw volume: 0%
[4]; dose 0.1 μg/paw, 24 hours
  percent reduction in paw volume: 0%
[4]; dose 0.1 μg/paw, 48 hours
  percent reduction in paw volume: 0%
[4]; dose 0.1 μg/paw, 72 hours
  percent reduction in paw volume: 0%
[4]; dose 1 μg/paw, 1.5 hours
  percent reduction in paw volume: 36%
[4]; dose 1 μg/paw, 3 hours
  percent reduction in paw volume: 45%
[4]; dose 1 μg/paw, 4.5 hours
  percent reduction in paw volume: 32%
[4]; dose 1 μg/paw, 24 hours
  percent reduction in paw volume: 44%
[4]; dose 1 μg/paw, 48 hours
  percent reduction in paw volume: 17%
[4]; dose 1 μg/paw, 72 hours
  percent reduction in paw volume: 10%
[4]; dose 10 μg/paw, 1.5 hours
  percent reduction in paw volume: 11%
[4]; dose 10 μg/paw, 3 hours
  percent reduction in paw volume: 33%
[4]; dose 10 μg/paw, 4.5 hours
  percent reduction in paw volume: 34%
[4]; dose 10 μg/paw, 24 hours
  percent reduction in paw volume: 70%
[4]; dose 10 μg/paw, 48 hours
  percent reduction in paw volume: 38%
[4]; dose 10 μg/paw, 72 hours
  percent reduction in paw volume: 6%

## CCC=CCC=CCC=CCC=CCC=CCCCCCC(=O)OCC(=O)C12OC(CCC)OC1CC1C3CCC4=CC(=O)C=CC4(C)C3C(O)CC12C (stereo not shown) [docosapentaenoic acid ester of budesonide]
[1]
  IC50: 9 nM
[2]
  PGE2 production: 200 pg/mL
[3]
  PGE2 production: 622 pg/mL

## CCC=CCC=CCC=CCC=CCC=CCCCC(=O)OCC(=O)C12OC(CCC)OC1CC1C3CCC4=CC(=O)C=CC4(C)C3C(O)CC12C (stereo not shown) [eicosapentaenoic acid ester of budesonide]
[1]
  IC50: 1.3 nM
[2]
  PGE2 production: 806 pg/mL
[3]
  PGE2 production: 576 pg/mL

## CCC=CCC=CCC=CCC=CCC=CCC=CCCC(=O)OCC(=O)C12OC(CCC)OC1CC1C3CCC4=CC(=O)C=CC4(C)C3C(O)CC12C (stereo not shown) [Docosahexaenoic acid ester of budesonide, docosahexaenoic acid ester of budesonide]
[1]
  IC50: 1.1 nM
[2]
  PGE2 production: 2075 pg/mL
[3]
  PGE2 production: 892 pg/mL

## CCCC1OC2CC3C4CCC5=CC(=O)C=CC5(C)C4C(O)CC3(C)C2(C(=O)COC(=O)CC(C)CCCC(C)CCCC(C)CCCC(C)C)O1 (stereo not shown) [Phytanic acid ester of Budesonide, phytanic acid ester of budesonide]
[4]; dose 0.0017 μg/paw, 1.5 hours
  percent reduction in paw volume: 0%
[4]; dose 0.0017 μg/paw, 3 hours
  percent reduction in paw volume: 10%
[4]; dose 0.0017 μg/paw, 4.5 hours
  percent reduction in paw volume: 12%
[4]; dose 0.0017 μg/paw, 24 hours
  percent reduction in paw volume: 4%
[4]; dose 0.0017 μg/paw, 48 hours
  percent reduction in paw volume: 7%
[4]; dose 0.0017 μg/paw, 72 hours
  percent reduction in paw volume: 3%
[4]; dose 0.017 μg/paw, 1.5 hours
  percent reduction in paw volume: 0%
[4]; dose 0.017 μg/paw, 3 hours
  percent reduction in paw volume: 0%
[4]; dose 0.017 μg/paw, 4.5 hours
  percent reduction in paw volume: 0%
[4]; dose 0.017 μg/paw, 24 hours
  percent reduction in paw volume: 0%
[4]; dose 0.017 μg/paw, 48 hours
  percent reduction in paw volume: 0%
[4]; dose 0.017 μg/paw, 72 hours
  percent reduction in paw volume: 6%
[4]; dose 0.17 μg/paw, 1.5 hours
  percent reduction in paw volume: 0%
[4]; dose 0.17 μg/paw, 3 hours
  percent reduction in paw volume: 0%
[4]; dose 0.17 μg/paw, 4.5 hours
  percent reduction in paw volume: 0%
[4]; dose 0.17 μg/paw, 24 hours
  percent reduction in paw volume: 0%
[4]; dose 0.17 μg/paw, 48 hours
  percent reduction in paw volume: 0%
[4]; dose 0.17 μg/paw, 72 hours
  percent reduction in paw volume: 0%
[4]; dose 1.7 μg/paw, 1.5 hours
  percent reduction in paw volume: 18%
[4]; dose 1.7 μg/paw, 3 hours
  percent reduction in paw volume: 15%
[4]; dose 1.7 μg/paw, 4.5 hours
  percent reduction in paw volume: 2%
[4]; dose 1.7 μg/paw, 24 hours
  percent reduction in paw volume: 30%
[4]; dose 1.7 μg/paw, 48 hours
  percent reduction in paw volume: 17%
[4]; dose 1.7 μg/paw, 72 hours
  percent reduction in paw volume: 16%
[4]; dose 17 μg/paw, 1.5 hours
  percent reduction in paw volume: 11%
[4]; dose 17 μg/paw, 3 hours
  percent reduction in paw volume: 5%
[4]; dose 17 μg/paw, 4.5 hours
  percent reduction in paw volume: 2%
[4]; dose 17 μg/paw, 24 hours
  percent reduction in paw volume: 74%
[4]; dose 17 μg/paw, 48 hours
  percent reduction in paw volume: 79%
[4]; dose 17 μg/paw, 72 hours
  percent reduction in paw volume: 65%
[4]; rat paw edema model, summary in words
  duration of effect: greatly extended duration of effect
